# Test results reported in patent publication US20260209260A1, “VECTORIZED NHC IRIDIUM(III) COMPLEXES AND USE THEREOF IN PHOTODYNAMIC THERAPY AND/OR DIAGNOSTIC” (CENTRE NATIONAL DE LA RECHERCHE SCIENTIFIQUE, priority 2022, published 2026).
# Values joined by “and” are separate entries in the source; they are usually repeats but may differ in a detail not shown here. Identical values can stand only once. Like-named read-outs stand apart in the source and are kept apart here.
# Experiments:
# T24 bladder cancer cells = assay: Cell viability assay (MTT), dark and blue light; assay type: cell-based, Human; details: for SI (vs NIH-3T3) T24 Blue: blue light 458 nm; for Photosensitizing index (PI) T24: dark vs blue light 458 nm
# Protocol: (§1) Cells were grown in humidified incubators at 37° C. in 5% CO2. Murine MC3T3 osteoblast and NIH-3T3 fibroblast cells-used as non-tumor cell models-were cultured in a-MEM medium and DMEM medium supplemented with 10% fetal bovine serum (FBS) and 1% Penicillin/Streptomycin (P/S) antibiotics, respectively. Human T24 bladder, MGHU3 bladder, Scaber bladder, A549 lung, MCF7 breast, MiaPaCa2 pancreas cancer cells were cultured in DMEM medium supplemented with 10% FBS and 1% P/S antibiotics. […] Human Hela cervix and HepG2 liver cancer cells were cultured EMEM medium supplemented with 10% FBS and 1% P/S antibiotics.
# (§2) MTT reagent (3-(4,5-dimethylthiazol-2-yl)-2,5-diphenyltetrazolium bromide) was used to determine cell death as originally described by Mosmann. Briefly, cells were seeded from 5,000 to 10,000 cells/well in 24-well plates (1 mL) depending on the cell type and allowed to attach overnight. The complexes were prepared in DMSO. The concentration of the complexes was calculated based on the elemental composition of the complexes determined by the elemental analyses. All cell viability experiments were carried out with a fixed concentration of 0.1% (v/v) DMSO. After 72 h of treatment, cells were incubated at 37° C. and 5% CO2 with 25 μL of MTT solution (5 mg/ml; Sigma-Aldrich) in 24-well plates for 3 to 4 h. After solubilization with 500 μL of DMSO, formazan was quantified spectrophotometrically with a microplate reader at 570 nm absorbance (ClarioSTAR, BMG LabTech). […] All the results were calculated from data obtained in at least three independent experiments performed in triplicate.
# (§3) Two sets of experiments were conducted in parallel for each complex to be studied:
# (§4) 1. The cells were incubated with the different complexes (in the dark) for 72 h.
# (§5) 2. The cells were incubated for 8 h with the different complexes (in the dark), then irradiated for 10 min, followed by an incubation in the dark up to 72 h.
# [1] = Emission lifetime measurement; assay type: physicochemical
# Protocol: Fluorescence lifetime measurements were performed by an Edinburgh FLS920 spectrofluorimeter equipped with a TCC900 card for data acquisition in time-correlated single-photon counting experiments (0.5 ns time resolution) with a D2 lamp and an LDH—P-C-405 pulsed diode laser. The estimated experimental error is 2 nm on the band maximum (5% on the lifetime, 10% on the fluorescence quantum yield).
# The emission lifetimes of biotin-vectorized complexes (I-a) to (I-l) range from 138 ns to 411 ns, among them, the lifetime of biotin-vectorized complexes (I-c), (I-e), (I-k) are 411, 224, and 322 ns respectively. The emission lifetimes of FTS-vectorized complexes (II-a) to (II-l) range from 167 ns to 486 ns, among them, the lifetime of FTS-vectorized complexes (II-c) and (II-k) are 319 and 486 ns respectively. The emission lifetimes of PSMA-vectorized complexes (III-a) to (III-l) are in the range of 159-649 ns, among them, the lifetime of complexes (III-a) and (III-k) were 248 and 649 ns, respectively. The emission lifetimes of Fc-vectorized complexes (IV-a) to (IV-l) are in the range of 178-228 ns.
# [2] = Luminescence emission spectra and quantum yield; assay type: physicochemical; details: for ΦP emission phosphorescence quantum yield: room temperature, reference POPOP in hexane or rhodamine B in ethanol
# Protocol: Fluorescence and phosphorescence emission spectra were obtained with a HORIBA JOBIN YVON, fluromax-4 and spectrofluorometer.
# Luminescence quantum yields were measured according to the method of Demas and Crosby, on solution samples at RT. The quantum yield is defined as: […]
# Where ΦP is the quantum yield of the sample, ΦR is the know quantum yield of the reference standard. […].
# The luminescence spectra of vectorized iridium(III) complexes were determined in CH2Cl2 at room temperature (Table 3).
# [3] = test system: NIH-3T3 fibroblast cells (non-tumor); assay: Cell viability assay (MTT), dark and blue light; assay type: cell-based, Murine; details: for Photosensitizing index (PI): NIH-3T3, dark vs blue light
# Protocol: as §1, §2, §3, §4, §5
# [4] = Lipophilicity: octanol-water partition coefficient, shake-flask method
# Protocol: The octanol-water partition coefficients (P) of all the complexes were determined using a shake-flask method^8. Water (100 mL, distilled after milli-Q purification) and n-octanol (100 mL, Sigma Aldrich, ACS spectrophotometric grade, ≥99%) were shaken together for 24 h to allow saturation of both phases. Stock solutions of the compounds ([…]) were prepared in the aqueous phase. Aliquots (2 mL) of each of these stock solutions were then added to an equal volume of the n-octanol phase. The resultant biphasic solution was mixed for 15 min and then centrifuged (3000 tr/min, 5 min) to separate the phases. The concentrations of the complex in the organic and aqueous phases were then determined using UV absorbance spectroscopy (260 nm). The blank is the water saturated with n-octanol. Log P was defined as logarithm of the ratio of the concentrations of the complex in the organic and aqueous phases (values reported are the means of at least three separated determinations).
# The Log P values have been determined by a classical shake-flask method.
# [5] = UV/Vis absorption spectra; assay type: physicochemical; details: room temperature; for maximum absorption, lowest-lying bands in the visible region over 360 nm: CH2Cl2 or CH2Cl2/MeOH (1:1); for λmax (nm) ε (M^−1 · cm^−1): air-saturated CH2Cl2 or CH2Cl2/MeOH (1:1), 50 μM, ε in brackets, sh = shoulder
# Protocol: UV/Vis absorption spectra were recorded at RT on solutions contained in quartz cuvettes (optical pathlength 1 cm, Hellma®) with a PerkinElmer® UV/VIS/NIR spectrophotometer Lambda 950 and a PerkinElmer® detector UV/VIS/NIR Accessory 2D Detector Module.
# [6] = test system: MC3T3 osteoblast cells (non-tumor); assay: Cell viability assay (MTT), dark and blue light; assay type: cell-based, Murine; details: in the dark, 72 h; read-out: GI50 MC3T3 Dark
# Protocol: as §1, §2, §3, §4, §5
# [7] = test system: PC-3 prostate cancer cells (PSMA-negative); assay: Cell viability assay (MTT), dark and blue light; assay type: cell-based, Human; details: for GI50: read-out: GI50; for Photosensitizing index (PI): PC3, dark vs blue light
# Protocol: Cells were grown in humidified incubators at 37° C. in 5% CO2. Murine MC3T3 osteoblast and NIH-3T3 fibroblast cells-used as non-tumor cell models-were cultured in a-MEM medium and DMEM medium supplemented with 10% fetal bovine serum (FBS) and 1% Penicillin/Streptomycin (P/S) antibiotics, respectively. Human T24 bladder, MGHU3 bladder, Scaber bladder, A549 lung, MCF7 breast, MiaPaCa2 pancreas cancer cells were cultured in DMEM medium supplemented with 10% FBS and 1% P/S antibiotics. Human ASPC-1 pancreas, PC-3 prostate, DU-145 prostate, C4-2B prostate and 22rV1 prostate cancer cells were cultured in RPMI medium supplemented with 10% FBS and 1% P/S antibiotics. Human Hela cervix and HepG2 liver cancer cells were cultured EMEM medium supplemented with 10% FBS and 1% P/S antibiotics.
# as §2
# Irradiation was conducted using an in-house device, a series of blue light LEDs selected according to the absorption spectra of the compounds at 458 nm wavelength with an emitted power of 9.6 Watts. The light fluence was measured at 458 nm with an optical power meter Thorlabs PM100A at different distances between the cell layer and the light source (5 and 10 cm).
# as §3, §4, §5
# [8] = 8 h in the dark, blue light 458 nm 10 min, then dark up to 72 h, read-out: GI50 T24 Blue
# [9] = in the dark, 72 h, read-out: GI50 T24 Dark
# [10] = 8 h in the dark, blue light 458 nm 10 min, then dark up to 72 h, read-out: GI50 NIH-3T3 Blue
# [11] = in the dark, 72 h, read-out: GI50 NIH-3T3 Dark
# [12] = n-octanol/water, shake-flask, mean of at least three determinations
Structure (SMILES),GI50 (T24 bladder cancer cells; [8]),SI (vs NIH-3T3) T24 Dark (T24 bladder cancer cells),Photosensitizing index (PI) T24 (T24 bladder cancer cells),GI50 (T24 bladder cancer cells; [9]),τ1 emission lifetime [1] [ns],ΦP emission phosphorescence quantum yield [2] [%],"GI50 [3, 10] [µM]","GI50 [3, 11] [µM]","Log P [4, 12]","maximum absorption, lowest-lying bands in the visible region over 360 nm [5]",λmax (nm) ε (M^−1 · cm^−1) [5],"SI (vs NIH-3T3) ([7]; PC3, dark)",Photosensitizing index (PI) [7],Photosensitizing index (PI) [3],also measured
COC(=O)c1cccc2[c]1[Ir-3]13([c]4c(C(=O)OC)cccc4-c4cccc[n+]41)([c]1n(CCCNC(=O)CCCC[C@@H]4SC[C@@H]5NC(=O)N[C@@H]54)cc[n+]1-c1cccc[n+]13)[n+]1ccccc1-2.F[P-](F)(F)(F)(F)F [I-d],28.9 µM and 26.9 µM,>3.8,1.0,26.3 µM,184,0.7,> 100,> 100,−0.10 ± 0.01,around 370 nm,373 (4260) nm (M^−1 · cm^−1),–,–,–,SI (vs NIH-3T3) T24 Blue (T24 bladder cancer cells): >3.7
Cc1ccc2[c](c1)[Ir-3]13([c]4cc(C)ccc4-c4cccc[n+]41)([c]1n(CCCNC(=O)CCCC[C@@H]4SC[C@@H]5NC(=O)N[C@@H]54)cc[n+]1-c1cccc[n+]13)[n+]1ccccc1-2.F[P-](F)(F)(F)(F)F [I-b],8.3 µM,>7.3,–,13.7 µM,177,0.5,> 100,> 100,0.43 ± 0.01,around 380 nm,"314 (sh) (18240), 382 (6150) nm (M^−1 · cm^−1)",–,–,–,Photosensitizing index (PI) T24 (T24 bladder cancer cells; listed as l-b): 1.7
F[P-](F)(F)(F)(F)F.O=C(CCCC[C@@H]1SC[C@@H]2NC(=O)N[C@@H]21)NCCCn1cc[n+]2[c]1[Ir-3]13([c]4cccc5ccc6ccc[n+]1c6c45)([c]1cccc4ccc5ccc[n+]3c5c14)[n+]1ccccc1-2 [I-i],35.4 µM,–,1.4,–,210,<0.1,> 100,> 100,–,–,"320 (13840), 410 (3920) nm (M^−1 · cm^−1)",–,–,–,"λem ([2]; CH2Cl2, room temperature, λexc 365 nm or 470 nm): 522-567 nm; GI50 [6]: 50.2 µM; Photosensitizing index (PI) NIH-3T3 ([3]; dark vs blue light 458 nm): >1; Log P [4]: 0.60 ± 0.06"
COC(=O)c1ccc2[c](c1)[Ir-3]13([c]4cc(C(=O)OC)ccc4-c4cccc[n+]41)([c]1n(CCCNC(=O)CCCC[C@@H]4SC[C@@H]5NC(=O)N[C@@H]54)cc[n+]1-c1cccc[n+]13)[n+]1ccccc1-2.F[P-](F)(F)(F)(F)F [I-c],24.9 µM and 24.5 µM,>3.7,1.1,26.7 µM and 26.9 µM,411,5.9,> 100,> 100,−0.78 ± 0.01,–,"310 (sh) (16860), 358 (4090), 400 (3295) nm (M^−1 · cm^−1)",–,–,–,SI (vs NIH-3T3) T24 Blue (T24 bladder cancer cells): >4.1
COC(=O)c1cccc2[c]1[Ir-3]13([c]4c(C(=O)OC)cccc4-c4cccc[n+]41)([c]1n(CCCNC(=O)[c-]4cccc4)cc[n+]1-c1cccc[n+]13)[n+]1ccccc1-2.F[P-](F)(F)(F)(F)F.[Fe+2].c1cc[cH-]c1 [IV-d],–,–,–,–,228,0.03,–,–,0.77 ± 0.01,around 370 nm,"335 (sh) (9725), 372 (6540) nm (M^−1 · cm^−1)",1.3,17.0,1.9,"SI (vs NIH-3T3) ([7]; PC3, blue light): 12.0; GI50 ([7]; PC3, blue light): 1.3 µM; GI50 ([7]; PC3, dark): 21.6 µM"
F[P-](F)(F)(F)(F)F.O=C(NCCCn1cc[n+]2[c]1[Ir-3]13([c]4cc(F)cc(F)c4-c4cccc[n+]41)([c]1cc(F)cc(F)c1-c1cccc[n+]13)[n+]1ccccc1-2)[c-]1cccc1.[Fe+2].c1cc[cH-]c1 [IV-l],–,–,–,–,191,0.01,–,–,–,–,"305 (sh) (21345), 356 (sh) (8645), 412 (3395) nm (M^−1 · cm^−1)",4.8,3.2,5.4,Log P [4]: 1.14 ± 0.02
F[P-](F)(F)(F)(F)F.O=C(NCCCn1cc[n+]2[c]1[Ir-3]13([c]4ccccc4-c4cccc[n+]41)([c]1ccccc1-c1cccc[n+]13)[n+]1ccccc1-2)[c-]1cccc1.[Fe+2].c1cc[cH-]c1 [IV-a],–,–,–,–,197,0.04,–,–,0.61 ± 0.07,around 380 nm,"304 (sh) (25840), 381 (8080) nm (M^−1 · cm^−1)",9.9,1.2,4.2,"SI (vs NIH-3T3) ([7]; PC3, blue light): 2.8; GI50 ([7]; PC3, blue light): 2.4 µM; GI50 ([3]; NIH-3T3, blue light, read-out: GI50): 6.7 µM; GI50 ([3]; NIH-3T3, dark, read-out: GI50): 28.2 µM"
